Here are results for 1 compound from PMC2790922 (Molecular pharmaceutics, 2009).

SMILES strings stand for the structures.

In assay [1] the target is T1, human recombinant active MMP-2 (Homo sapiens, UniProt P08253).
T1 sequence (P08253 110-660): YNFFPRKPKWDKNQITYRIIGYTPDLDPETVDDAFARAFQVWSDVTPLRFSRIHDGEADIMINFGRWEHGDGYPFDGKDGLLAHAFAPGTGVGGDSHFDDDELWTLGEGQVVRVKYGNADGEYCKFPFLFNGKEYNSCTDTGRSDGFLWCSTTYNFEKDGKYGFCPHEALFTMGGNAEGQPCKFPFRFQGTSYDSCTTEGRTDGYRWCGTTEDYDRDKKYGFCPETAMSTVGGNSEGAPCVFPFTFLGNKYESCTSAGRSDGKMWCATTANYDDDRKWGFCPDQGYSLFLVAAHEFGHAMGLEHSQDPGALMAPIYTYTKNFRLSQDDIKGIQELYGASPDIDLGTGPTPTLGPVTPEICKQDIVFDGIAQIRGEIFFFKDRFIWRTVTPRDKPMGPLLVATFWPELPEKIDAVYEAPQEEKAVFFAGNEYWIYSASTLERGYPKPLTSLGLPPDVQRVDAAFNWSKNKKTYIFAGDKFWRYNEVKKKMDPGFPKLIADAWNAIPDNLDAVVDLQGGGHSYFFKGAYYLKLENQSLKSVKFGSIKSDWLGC
Description: Cleavage of peptides by purified active MMP-2. The format is biochemical. As to conditions: 10 µM GM6001; 9 nM active MMP-2; 37°C, 2 h; FAM fluorescence.

In another assay the test system is MMP-2 from HUVECs. Description: Peptide cleavage by MMP-2 in PMA-treated HUVECs culture. The format is cell-based, human. Particulars: 25 µM GM6001, 30 min pre-treatment; 10 µM MMP-RGD; 24 h; p = 0.041.

Regarding `CNC(=O)[C@H](Cc1c[nH]c2ccccc12)NC(=O)[C@@H](CC(=O)NO)CC(C)C` [GM6001], the “inhibition of cleavage of MMP-RGD and MMP-control by purified MMP-2” value in assay [1] was “inhibited”. Moreover, the “inhibition of cleavage of MMP-RGD by PMA-treated HUVECs” value in the assay with MMP-2 from HUVECs is “inhibited”.
